From patent US11938136B2, “Compositions for treating spinal muscular atrophy” (Hoffmann-La Roche Inc., priority 2015, dated 2024)
Read-outs that look alike come from different tables or passages of the source.

Assays:
[1] = system: SMN protein; assay: SMN protein assay (HTRF) in SMA patient fibroblast cells; format: cell-based, human; conditions: SMA patient fibroblasts
Text: The term “EC1.5x concentration for SMN protein expression” (or “EC1.5x SMN protein”) is defined as that concentration of test compound that is effective in producing 1.5 times the amount of SMN protein in an SMA patient fibroblast cell compared to the amount produced from the vehicle control.
(A) SMN2 splicing in SMA Type 1 fibroblasts. (B) SMN protein in SMA Type 1 fibroblasts. (C) SMN protein in SMA Type 1 motor neurons. (D) SMN1 and SMN2 splicing in whole blood derived from HV. […] SMN splicing was assessed by RT-PCR, and SMN protein levels were assessed by homogenous time-resolved fluorescence (HTRF) in fibroblast lysates, and by immunostaining for SMN in motor neurons. Data represent means standard error (SEM) of 3 evaluations per data point and are expressed as fold change vs. untreated controls.
The SMN HTRF (homogeneous time resolved fluorescence) assay is used to quantify the level of SMN protein in SMA patient fibroblast cells treated with test compounds. […]
Cells are thawed and cultured in DMEM-10% FBS for 72 hours. Cells are trypsinized, counted and re-suspended to a concentration of 25,000 cells/mL in DMEM-10% FBS. […] Fluorescence for each well of the plate at 665 nm and 620 nm is measured on an EnVision multilabel plate reader (Perkin-Elmer). […]

[2] = system: SMNΔ7 mice; assay: Survival and body weight of SMNΔ7 mice; format: in vivo, mouse
Protocol: FIG. 3. in vivo Effects of treatment SMNΔ7 mice with 7-(4,7-diazaspiro[2.5]octan-7-yl)-2-(2,8-dimethylimidazo[1,2-b]pyridazin-6-yl)pyrido[1,2-a]pyrimidin-4-one (Example 20). SMNΔ7 mice were treated with the compound of Example 20 from P3 onwards and animal survival (A) and body weight (B) were assessed daily until P100. Data represent means SEM of 10-12 mice per group. HET=heterozygous littermates.
Functional benefits were assessed in the severe and mild SMA mouse models. SMNΔ7 mice were treated from P3 to P23 once daily by IP injection of vehicle or the compound of Example 20, and from P24 onwards once daily by oral gavage. During the treatment period, body weight and animal survival were monitored. Over the 100-day observation period, only two heterozygous littermates died. In contrast, all vehicle-treated mice died before P21 with a median survival time (MST) of 10.5 days.

[3] = system: human SMN2 pre-mRNA; assay: SMN2 splicing in SMA Type 1 fibroblasts (RT-PCR); format: cell-based; conditions: Fibroblast, 24 hours
Protocol: (A) SMN2 splicing in SMA Type 1 fibroblasts. (B) SMN protein in SMA Type 1 fibroblasts. (C) SMN protein in SMA Type 1 motor neurons. (D) SMN1 and SMN2 splicing in whole blood derived from HV. Fibroblasts from SMA Type 1 patients were cultured for 24 hours (A) or 48 hours (B); motor neurons from SMA Type 1 patient iPSCs (induced Pluripotent Stem Cells) were cultured for 72 hours (C) and whole blood cells from healthy volunteers (HV) for 4 hours (D) in the presence of the compound of Example 20. SMN splicing was assessed by RT-PCR, and SMN protein levels were assessed by homogenous time-resolved fluorescence (HTRF) in fibroblast lysates, and by immunostaining for SMN in motor neurons. Data represent means standard error (SEM) of 3 evaluations per data point and are expressed as fold change vs. untreated controls.
The compound of Example 20 is an orally available small molecule SMN2 splicing modifier for the treatment of SMA. It has been found, that the compound of Example 20 effectively corrects the dysfunctional splicing of the human SMN2 pre-mRNA in cultured patient cells (SMA Type 1 fibroblasts) by shifting the balance of the alternative splicing reaction completely towards the inclusion of SMN2 exon 7 and the production of the full-length mRNA (FIG. 1A: EC50 29±8 nM for FL, 12±1 nM for Δ7 mRNA). […] EC1.5× was 4.7±0.7 nM and the maximum induction was 20-fold.

[4] = system: splicing events and expression levels of genes; assay: Transcriptional profiling analysis; format: cell-based
Text: The specific function of STRN3, SLC25A17, and GGCT and consequences of their dysregulation have not been elucidated so far. These three genes are also consistently found to be affected at the higher dose (5-fold higher than the EC90), a dose used in order to illustrate the maximum effect of this compound. Splicing events of 11 genes, including the genes FoxM1 and MADD, were affected at the higher dose but not by the lower dose. FoxM1 and MADD have been described as being involved in cell cycle regulation and apoptosis, respectively.

For `Cc1cn2nc(-c3cc(=O)n4cc(N5CCNC6(CC6)C5)ccc4n3)cc(C)c2n1` [Example 20, 7-(4,7-diazaspiro[2.5]octan-7-yl)-2-(2,8-dimethylimidazo[1,2-b]pyridazin-6-yl)pyrido[1,2-a]pyrimidin-4-one], the “maximal increase in SMN protein above untreated cells” value [1] was 60-80%, the “recovery in body weight gain as compared to heterozygous littermates” value (“recovery … compared to heterozygous littermates” below) ([2]; high dose) was 85% and the “animals surviving up to P100” value ([2]; high dose: 3 mg/kg IP through P23 and 10 mg/kg PO thereafter) was 73%. For the same compound, the “correction of impaired body weight increase” value ([2]; low dose) was “only mildly corrected”, the “recovery … compared to heterozygous littermates” value ([2]; mid dose) was 71% and the “animals surviving up to P100” value ([2]; mid dose: 0.3 mg/kg IP through P23 and 1 mg/kg PO thereafter) was 80%. For the same compound, the “recovery … compared to heterozygous littermates” value ([2]; mid/high dose) was 82%, the “animals surviving up to P100” value ([2]; mid/high dose: 1 mg/kg IP through P23 and 3 mg/kg PO thereafter) was 82% and the EC50 ([3]; read-out: EC50 for FL SMN2 mRNA) was 0.029 ± 0.008 µM. For the same compound, the EC50 ([3]; read-out: EC50 for Δ7 SMN2 mRNA) was 0.012 ± 0.001 µM, the “number of genes whose expression levels were changed (p<0.01)” value ([4]; 121 nM dose) was 0 and the “genes whose splicing events were affected” value ([4]; 121 nM, compared to control) was “STRN3, SLC25A17 and GGCT”. The “number of genes whose splicing events were affected at the higher dose but not by the lower dose” value ([4]; higher dose, 5-fold higher than the EC90, including FoxM1 and MADD) was 11 and the EC90 ([4]; read-out: EC90 (therapeutically relevant concentration)) was 0.121 µM.
